Where a name gives a salt, the structure may show the parent alone.
Key:
GPR40 = biological target: T1, GPR40 (Homo sapiens, UniProt O14842); test: IP1 accumulation assay in HEK293 cells stably expressing GPR40; type: cell-based; conditions: HEK293 cells stably expressing GPR40, 2 hours at 37° C.
T1 construct: expressed in transfected cells
Description: IP1 accumulation assay was used to evaluate the potency of compounds. HEK293 cells stably expressing GPR40 were cultured in 5% CO2 incubator (ThermoFisher) in maintenance media (Dulbecco's modified Eagle's medium with 4.5 g/L of glucose, 10% fetal bovine serum, 100 μg/mL Hygromycin, and Penicillin (100 U/mL)/Streptomycin (100 μg/mL)) till 100% confluency. Cells were harvested freshly, spun down at 300× g for 5 min, and resuspended in pre-warmed 1× stimulant buffer from Cisbio IP-One HTRF Detection kit (Cisbio). Cell density was adjusted to 2.0×10^6 cells/mL. DMSO was used as blank control and AMG-1638 (CAS #: 1142214-62-7) as positive control. Compounds were prepared at 10 mM in DMSO and 5 nL of 3× serially diluted compounds (10 concentrations) were added to each well of the 384-LDV assay plate (Corning) by using ECHO 550 (Labcyte). Five μL of cells in suspension were transferred into each well by using Multidrop Combi Reagent Dispenser (ThermoFisher). Assay plate was then sealed and incubated at 37° C. for 2 hours. IP-d2 reagent and anti-IP1 reagent were prepared following the manual (Cisbio). Five μL of IP1-d2 and then 5 μL of anti-IP1 antibody was added to each well sequentially. Assay plate was incubated at room temperature for 60 min and then read at 665 nm/615 nm on an Envision plate reader (PerkinElmer). The ratio of values obtained at 665 nm and 615 nm was used for calculation of IP1 accumulation: % Effect=(Ratiosample−Ratioblank)/(RatioAMG-1638−Ratioblank)×100. Dose curve was fitted and EC50 of each compound was calculated by using XLFit.

[1] = Pharmacokinetics in mice (IV and PO), plasma LC-MS/MS; type: in vivo, Male ICR (CD-1) mice
Description: Male ICR (CD-1) mice at around 4-6 weeks with body weight of around 25 grams (n=3) were purchased from VT-River (Zhejiang, China). After 1-week acclimation, animals were dosed with exemplary compounds intravenously at 1 mpk or orally at 10 mpk (0.5% methylcellulose in PBS as vehicle for both routes of administration). Blood samples (30 μL) were collected via saphenous vein puncture at 5 (IV only), 15, 30, 60, 120, 240, 480, and 1440 min post dose. The blood samples were saved in 0.5 M K2EDTA coated tubes and centrifuged at 4,600 rpm at 4° C. for 5 min. Plasma samples were collected and stored in −80° C. till PK analysis.
Take 10 μL of K2EDTA-treated plasma samples of CD-1 mice, add 200 μL of precipitation solution with internal standard (5 ng/mL Terfenadine in MeOH/ACN), mix well by vortexing for 1 min at room temperature followed by centrifuge at 4° C. and 4000 rpm for 15 min. Save the supernatant as injection for LC-MS/MS quantification of exemplary compounds in plasma samples of mice.
Establish a standard curve before and after each analytical batch, accompanied by quality controls of low, medium, and high concentrations. The number of quality control samples is not less than 6 and should be equal to or more than the number of samples of each batch, and interspersed in sample measurement. Standard curve and quality control samples of each batch must meet the acceptance criteria.

[2] = male, ICR (CD-1), mouse, plasma, 10 mg/kg, PO (10 mpk)

T1 sequence (O14842 whole entry): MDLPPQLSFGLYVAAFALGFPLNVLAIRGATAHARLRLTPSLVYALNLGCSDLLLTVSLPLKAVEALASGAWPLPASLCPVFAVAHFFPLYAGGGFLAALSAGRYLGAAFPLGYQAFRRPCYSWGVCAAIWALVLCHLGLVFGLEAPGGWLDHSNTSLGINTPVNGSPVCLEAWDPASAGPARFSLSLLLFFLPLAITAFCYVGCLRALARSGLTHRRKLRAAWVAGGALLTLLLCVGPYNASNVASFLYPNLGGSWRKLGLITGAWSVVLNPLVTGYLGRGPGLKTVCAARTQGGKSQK

SMILES	EC50 (GPR40)	also measured
COc1ccc(C(=O)N(CC(C)(C)CCCCCCCCCCCCCCCCCCCC(=O)NCCN(CCC(=O)NCCN)CCC(=O)NCCN)c2cccc(C)n2)c(N2CCC(COc3cc([C@@H](CC(=O)O)C4CC4)ccn3)CC2)c1 [Example 1]	1.23 nM	–
COc1ccc(C(=O)N(CC(C)(C)CCCCCCCCCCCCCCCCCCCC(=O)NCCN(CC(=O)NCCN)CC(=O)NCCN)c2cccc(C)n2)c(N2CCC(COc3cc([C@@H](CC(=O)O)C4CC4)ccn3)CC2)c1 [Example 2]	2 nM	–
COc1ccc(C(=O)N(CC(C)(C)CCCCCCCCCCCCCCCCCCCC(=O)NCC[N+](C)(CCC(=O)NCCN)CCC(=O)NCCN)c2cccc(C)n2)c(N2CCC(COc3cc([C@@H](CC(=O)O)C4CC4)ccn3)CC2)c1 [Example 3]	1.79 nM	–
COc1ccc(C(=O)N(CC(C)(C)CCCCCCCCCCCCCCCCCCCC(=O)NCC[N+](C)(CC(=O)NCCN)CC(=O)NCCN)c2cccc(C)n2)c(N2CCC(COc3cc([C@@H](CC(=O)O)C4CC4)ccn3)CC2)c1 [Example 4]	2.14 nM	Cl ([1]; IV (1 mpk)): 0.22 ml/mL/kg; AUC ([1]; male, ICR (CD-1), mouse, plasma, 1 mg/kg, IV (1 mpk)): 54.1 µM·h; half-life ([1]; male, ICR (CD-1), mouse, plasma, 1 mg/kg, IV (1 mpk), read-out: T½ (converted)): 8.2 h; Vd ([1]; male, ICR (CD-1), mouse, plasma, 1 mg/kg, IV (1 mpk), read-out: Vss): 0.14 L/kg; Cmax [1, 2]: 0.0661 µM; Tmax [1, 2]: 5.3 h; bioavailability ([1]; male, ICR (CD-1), mouse, plasma, 10 mg/kg, PO (10 mpk), oral bioavailability): 0.16%
COc1ccc(C(=O)N(CC(C)(C)CCCCCCCCCCCCCCCCCCCC(=O)NCCCN(CC(=O)NCCN)CC(=O)NCCN)c2cccc(C)n2)c(N2CCC(COc3cc([C@@H](CC(=O)O)C4CC4)ccn3)CC2)c1 [Example 5]	1.73 nM	–
COc1ccc(C(=O)N(CC(C)(C)CCCCCCCCCCCCCCCCCCCC(=O)NCCC[N+](C)(CC(=O)NCCN)CC(=O)NCCN)c2cccc(C)n2)c(N2CCC(COc3cc([C@@H](CC(=O)O)C4CC4)ccn3)CC2)c1 [Example 6]	0.84 nM	–
COc1ccc(C(=O)N(CC(C)(C)CCCCCCCCCCCCCCCCCC(=O)NCC[N+](C)(CC(=O)NCCN)CC(=O)NCCN)c2cccc(C)n2)c(N2CCC(COc3cc([C@@H](CC(=O)O)C4CC4)ccn3)CC2)c1 [Example 7]	0.53 nM	–
COc1ccc(C(=O)N(CC(C)(C)CCCCCCCCCCCCCCCCCCCC(=O)NCCN(CCCC(=O)NCCN)CCCC(=O)NCCN)c2cccc(C)n2)c(N2CCC(COc3cc([C@@H](CC(=O)O)C4CC4)ccn3)CC2)c1 [Example 8]	0.28 nM	–
COc1ccc(C(=O)N(CC(C)(C)CCCCCCCCCCCCCCCCCCCC(=O)NCC[N+](C)(CCCC(=O)NCCN)CCCC(=O)NCCN)c2cccc(C)n2)c(N2CCC(COc3cc([C@@H](CC(=O)O)C4CC4)ccn3)CC2)c1 [Example 9]	0.35 nM	–
COc1ccc(C(=O)N(CC(C)(C)CCCCCCCCCCCCCCCCCCCCC(=O)NCC[N+](C)(CC(=O)NCCN)CC(=O)NCCN)c2cccc(C)n2)c(N2CCC(COc3cc([C@@H](CC(=O)O)C4CC4)ccn3)CC2)c1 [Example 10]	3.65 nM	–
COc1ccc(C(=O)N(CC(C)(C)CCCCCCCCCCCCCCCCCCCCCC(=O)NCC[N+](C)(CC(=O)NCCN)CC(=O)NCCN)c2cccc(C)n2)c(N2CCC(COc3cc([C@@H](CC(=O)O)C4CC4)ccn3)CC2)c1 [Example 11, (S)-2-((2-aminoethyl)amino)-N-(2-((2-aminoethyl)amino)-2-oxoethyl)-N-(2-(24-(2-(4-(((4-(2-carboxy-1-cyclopropylethyl)pyridin-2-yl)oxy)methyl)piperidin-1-yl)-4-methoxy-N-(6-methylpyridin-2-yl)benzamido)-23,23-dimethyltetracosanamido)ethyl)-N-methyl-2-oxoethanaminium trifluoroacetate]	1.34 nM	–
COc1ccc(C(=O)N(CC(C)(C)CCCCCCCCCCCCCCCCCCCC(=O)NCCCN(C)CC(=O)NCCN)c2cccc(C)n2)c(N2CCC(COc3cc([C@@H](CC(=O)O)C4CC4)ccn3)CC2)c1 [Example 15]	0.67 nM	–
COc1ccc(C(=O)N(CC(C)(C)CCCCCCCCCCCCCCCCCCCC(=O)NCCC[N+](C)(C)CC(=O)NCCN)c2cccc(C)n2)c(N2CCC(COc3cc([C@@H](CC(=O)O)C4CC4)ccn3)CC2)c1 [Example 16]	0.48 nM	–
C[C@H](C(=O)O)[C@H](c1ccc2c(c1)O[C@@H](C1CCN(Cc3cc(CCCCCCCCCCCCCCCCCCCC(=O)NCCC[N+](C)(CC(=O)NCCN)CC(=O)NCCN)ccc3OC(F)(F)F)CC1)CC2)C1CC1 [Example 20]	3.57 nM	–
COc1ccc(C(=O)N(CC(C)(C)CCCCCCCCCCCCCCCCCC[N+]23CCN(CC2)CC3)c2cccc(C)n2)c(N2CCC(COc3cc([C@@H](CC(=O)O)C4CC4)ccn3)CC2)c1 [Example 22]	0.36 nM	–
COc1ccc(C(=O)N(CC(C)(C)CCCCCCCCCCCCCCCCCCNC(=O)C[N+]23CCN(CC2)CC3)c2cccc(C)n2)c(N2CCC(COc3cc([C@@H](CC(=O)O)C4CC4)ccn3)CC2)c1 [Example 23, (S)-1-(2-((20-(2-(4-(((4-(2-carboxy-1-cyclopropylethyl)pyridin-2-yl)oxy)methyl)piperidin-1-yl)-4-methoxy-N-(6-methylpyridin-2-yl)benzamido)-19,19-dimethylicosyl)amino)-2-oxoethyl)-1,4-diazabicyclo[2.2.2]octan-1-ium trifluoroacetate]	2.8 nM	–
COc1ccc(C(=O)N(CC(C)(C)CCCCCCCCCCCCCCCCCC[N+]2(C)CCN(C)CC2)c2cccc(C)n2)c(N2CCC(COc3cc([C@@H](CC(=O)O)C4CC4)ccn3)CC2)c1 [Example 24]	1.15 nM	–
COc1ccc(C(=O)N(CC(C)(C)CCCCCCCCCCCCCCCCCC[N+](C)(C)C)c2cccc(C)n2)c(N2CCC(COc3cc([C@@H](CC(=O)O)C4CC4)ccn3)CC2)c1 [Example 25]	0.45 nM	–
CC[N+](CC)(CC)CCCCCCCCCCCCCCCCCCC(C)(C)CN(C(=O)c1ccc(OC)cc1N1CCC(COc2cc([C@@H](CC(=O)O)C3CC3)ccn2)CC1)c1cccc(C)n1 [Example 26]	0.36 nM	–
COc1ccc(C(=O)N(CC(C)(C)CCn2cc(CCCCCCCCCCCCCCCCCC(=O)NCCNC(=O)C(CCCCN(CCCN)CCCN)NCCCN)nn2)c2cccc(C)n2)c(N2CCC(COc3cc([C@@H](CC(=O)O)C4CC4)ccn3)CC2)c1 (some centres unmarked) [Example 27]	0.71 nM	–
COc1ccc(C(=O)N(CC(C)(C)CCCCCCCCCCCCCCCCCC(=O)NCCCC[N+]23CCN(CC2)CC3)c2cccc(C)n2)c(N2CCC(COc3cc([C@@H](CC(=O)O)C4CC4)ccn3)CC2)c1 [Example 28]	0.49 nM	–
COc1ccc(C(=O)N(CC(C)(C)CCCCCCCCCCCCCCCCCC(=O)NCCCC[N+](C)(C)C)c2cccc(C)n2)c(N2CCC(COc3cc([C@@H](CC(=O)O)C4CC4)ccn3)CC2)c1 [Example 29]	0.32 nM	–
CC[N+](CC)(CC)CCCCNC(=O)CCCCCCCCCCCCCCCCCC(C)(C)CN(C(=O)c1ccc(OC)cc1N1CCC(COc2cc([C@@H](CC(=O)O)C3CC3)ccn2)CC1)c1cccc(C)n1 [Example 30]	0.43 nM	–
COc1ccc(C(=O)N(CC(C)(C)CCCCCCCCCCCCCCCCCC(=O)NCc2ccccc2)c2cccc(C)n2)c(N2CCC(COc3cc([C@@H](CC(=O)O)C4CC4)ccn3)CC2)c1 [Example 31]	163 nM	–
CCCCNC(=O)CCCCCCCCCCCCCCCCCC(C)(C)CN(C(=O)c1ccc(OC)cc1N1CCC(COc2cc([C@@H](CC(=O)O)C3CC3)ccn2)CC1)c1cccc(C)n1 [Example 32]	385 nM	–
COc1ccc(C(=O)N(CC(C)(C)CCn2cc(CCCCCCCCCCCCCCCCCC(=O)O)nn2)c2cccc(C)n2)c(N2CCC(COc3cc([C@@H](CC(=O)O)C4CC4)ccn3)CC2)c1 [Example 33]	> 152 nM	–
COc1ccc(C(=O)N(CC(C)(C)CCCCCCCCCCCCCCCCCC(=O)NCCC[N+](C)(CC(=O)[O-])CC(=O)O)c2cccc(C)n2)c(N2CCC(COc3cc([C@@H](CC(=O)O)C4CC4)ccn3)CC2)c1 (some centres unmarked) [Example 35]	0.63 nM	–
COc1ccc(C(=O)N(CC(C)(C)CCCCCCCCCCCCCCCCCC(=O)NCCC[N+](C)(C)CCCS(=O)(=O)[O-])c2cccc(C)n2)c(N2CCC(COc3cc([C@@H](CC(=O)O)C4CC4)ccn3)CC2)c1 [Example 36]	0.78 nM	–
